Target: T1, FLuc-C-HiBiT (Photinus pyralis, UniProt P08659)
T1 construct: firefly luciferase with C-terminal HiBiT tag, E. coli expressed
Experiment: biochemical
Settings: enzyme activity, 10 uM ATP; read-out: IC50 or SDR50 (mM) / FLuc E

T1 sequence (P08659 whole entry, looked up): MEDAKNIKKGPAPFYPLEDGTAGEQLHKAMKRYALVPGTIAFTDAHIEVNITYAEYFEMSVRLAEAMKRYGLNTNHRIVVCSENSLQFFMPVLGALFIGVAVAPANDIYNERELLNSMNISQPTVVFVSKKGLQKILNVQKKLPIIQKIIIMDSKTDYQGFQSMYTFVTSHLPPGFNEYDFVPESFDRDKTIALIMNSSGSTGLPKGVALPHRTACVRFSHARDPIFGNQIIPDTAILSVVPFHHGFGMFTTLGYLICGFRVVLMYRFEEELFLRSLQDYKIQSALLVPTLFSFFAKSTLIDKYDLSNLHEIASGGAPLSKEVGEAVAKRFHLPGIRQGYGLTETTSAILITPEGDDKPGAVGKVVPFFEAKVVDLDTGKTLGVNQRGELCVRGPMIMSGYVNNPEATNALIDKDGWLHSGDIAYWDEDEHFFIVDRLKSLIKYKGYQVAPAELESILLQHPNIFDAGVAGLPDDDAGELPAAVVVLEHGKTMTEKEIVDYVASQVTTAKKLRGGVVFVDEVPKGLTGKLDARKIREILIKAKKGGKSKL

Row | IC50 | Structure (SMILES)
1 | > 30 µM | O=C(Nc1ccccc1-c1nc2ccccc2s1)c1ccccc1F [NCGC00636212-01]
2 | 20.2 µM | COc1ccc(CN2CCNc3cc(-c4ccccc4)ncc3C2)cn1 [NCGC00411207-01]
3 | > 30 µM | COc1ccc(CC(=O)Nc2ccc(-c3nc4ccccc4s3)c(C)c2)cc1OC [NCGC00137832-01]
4 | 2.21 µM | COc1ccc(-c2noc(Nc3ccccc3)n2)cc1 [NCGC00422340-01]
5 | 11.1 µM | CN(Cc1ccccc1)C(=O)[C@H]1C[C@@H](O)[C@H](O)[C@@H]2N=C(Nc3ccc(-n4cccn4)cc3)S[C@@H]21 [NCGC00401585-01]
6 | 8.81 µM | CCCn1ncc(-c2nc(-c3ccncc3)no2)c1C [NCGC00445972-01]
7 | > 30 µM | O=C(Nc1ccc(-c2nc3ccccc3s2)c(O)c1)c1ccc(Br)cc1 [NCGC00098662-01]
8 | 11.1 µM | O=C(Nc1ccc2c(c1)OCCO2)N1CCC(c2nc(C3CCOCC3)no2)CC1 [NCGC00453474-01]
9 | 0.007 µM | CNc1ccc2cc(-c3nc4ccc(C(=O)O)cc4s3)ccc2c1 [NCGC00655706-01]
10 | > 30 µM | N#Cc1c(NC(=O)c2cccc3ccccc23)sc2c1CCCC2 [NCGC00242227-03]
11 | 9.89 µM | O=C(NCCn1cccc1-c1nc(-c2ccc3c(c2)OCO3)no1)c1ccc(Cl)cc1 [NCGC00445582-01]
12 | 12.4 µM | CCc1nc(-c2ccc(OC3CCN(C(=O)C4CC4)C3)cc2)no1 (stereo not shown) [NCGC00440987-01]
13 | 3.51 µM | Cc1ccc(NC(=O)/C=C/c2ccccc2Cl)cc1Cl [NCGC00098283-01]
14 | 8.81 µM | O=C(NC1CCCN(c2cc(-c3ccc(F)cc3)n[nH]2)C1)c1ccc2ncccc2c1 (stereo not shown) [NCGC00437580-01]
15 | 12.4 µM | Cc1c(CCNC(=O)c2ccc(Br)o2)sc2nc(-c3ccc(Cl)cc3)nn12 [NCGC00137117-01]
16 | 0.176 µM | Nc1c(C(=O)Nc2ccc(C(=O)O)cc2)sc2nc3c(cc12)CCCC3 [NCGC00100367-01]
17 | > 30 µM | O=C(Nc1ccccc1-c1nc2ccccc2s1)c1ccc(F)cc1 [NCGC00102555-01]
18 | > 30 µM | Cc1cccc(N2CCN(C(=O)CSCc3ccc(F)cc3)CC2)c1C [NCGC00140140-01]
19 | 1.57 µM | Cc1ccc(-c2cc3c(=O)n(CCNC(=O)c4nn(C)c5ccccc45)ccn3n2)c(C)c1 [NCGC00456971-01]
20 | 0.00394 µM | COc1cccc(-c2nc(-c3cccc(C(=O)O)c3)no2)c1 [NCGC00168766-01]
21 | 12.4 µM | CSc1ccc(NC(=O)c2ccc3c(c2)N(C)C2CCCN2C3=O)cc1 (stereo not shown) [NCGC00452166-01]

Row | IC50 | Structure (SMILES)
22 | 9.89 µM | CCCNc1cc(N2CCC(CCC(=O)Nc3ccc4c(c3)OCCO4)CC2)ncn1 [NCGC00470245-01]
23 | 9.89 µM | Fc1ccc(Nc2nc(-c3ccccc3F)no2)cc1 [NCGC00422310-01]
24 | 17.6 µM | COCC1CCN(c2ccc(-c3nc(-c4ccccc4C)no3)cn2)C1 (stereo not shown) [NCGC00427117-01]
25 | 2.79 µM | COc1cccc(CNC(=O)Nc2cccc(-c3ccc(N4CCOCC4)nn3)c2)c1 [NCGC00427600-01]
26 | 0.7 µM | Cc1cc2nn(-c3ccc(Cl)cc3)nc2cc1NC(=O)C(C)C [NCGC00099081-01]
27 | 11.1 µM | Cc1ccc(NC(=O)CCc2c(C)nc3cc(-c4ccccc4)nn3c2C)cc1F [NCGC00109926-01]
28 | > 30 µM | Cc1ccc(C2=Nc3cc(Cl)ccc3NC(c3ccccc3)=N2)cc1 [NCGC00116648-01]
29 | > 30 µM | O=C(O)C1(CCc2ccccc2)CCCN(c2ncnc3[nH]cnc23)C1 (stereo not shown) [NCGC00432626-01]
30 | 12.4 µM | CCOC(=O)c1ccc(NC(=O)CSc2nnc(CNC(=O)c3ccc(OC)cc3)n2CC)cc1 [NCGC00110413-01]
31 | 3.94 µM | CCOC(=O)N1CCc2c(sc(NCc3ccc(OCC)cc3)c2C(=O)Nc2ccc(OC)cc2OC)C1 [NCGC00140805-01]
32 | 3.13 µM | O=C(O)c1cccc(-c2noc(-c3cc([N+](=O)[O-])cc([N+](=O)[O-])c3)n2)c1 [NCGC00250195-01]
33 | 17.6 µM | CN1c2cc(C(=O)Nc3cccc(Cl)c3)ccc2C(=O)N2CCCCCC21 (stereo not shown) [NCGC00452209-01]
34 | 11.1 µM | Cc1nc2ccc(-c3nc(C4CCOC4)no3)cc2s1 (stereo not shown) [NCGC00446448-01]
35 | 14 µM | CC1CCN(C(=O)c2cc3c(s2)CCC(C(=O)O)C3)CC1 (stereo not shown) [NCGC00432771-01]
36 | 12.4 µM | CCOc1cc(C(=O)Nc2ccc(-c3nc4ccccc4s3)cc2Cl)cc(OCC)c1OCC [NCGC00137812-01]
37 | 0.442 µM | Cc1cccc(NC(=O)c2cc(-c3ccc4c(c3)OCCO4)on2)c1 [NCGC00118828-01]
38 | 0.785 µM | c1ccc(Nc2ncc(-c3ccccc3)o2)cc1 [NCGC00242146-02]
39 | > 30 µM | C=C1[C@H](CO)[C@@H](O)C[C@@H]1n1cnc2c(=O)[nH]c(N)nc21 [NCGC00164563-11]
40 | 16.1 µM | Fc1cccc(-c2cnc(Nc3ccc(N4CCOCC4)cc3)c3c2CCO3)c1 [NCGC00412721-01]
41 | > 30 µM | Cc1cccc(CCNC(=O)c2sc3nc4n(c(=O)c3c2C)CCCC4)c1 [NCGC00121158-01]
42 | 11.1 µM | Cc1c(Cl)cccc1-n1nnc(-c2nc(-c3ccc4c(c3)OCO4)no2)c1C [NCGC00128638-01]

Row | IC50 | Structure (SMILES)
43 | 1.97 µM | COc1ccc(C(=O)Nc2onc3c2CCCC3)cc1 [NCGC00115906-01]
44 | 18 µM | O=C1c2cnc(-c3ccc(F)cc3F)nc2OCCN1CC1CC1 [NCGC00413656-01]
45 | 14.3 µM | Cc1csc(NC(=O)c2nc3c(o2)CCN(Cc2cccc(F)c2)CC3)n1 [NCGC00413280-01]
46 | 0.785 µM | COc1ccc(-c2nc3c4cnn(-c5ccccc5F)c4ncn3n2)cc1 [NCGC00115088-01]
47 | 11.1 µM | CCCCC(=O)Nc1cccc(-c2nc3ccccc3s2)c1 [NCGC00119159-01]
48 | 3.51 µM | COc1ccc(-c2cc3c(=O)n(CCNC(=O)c4cccc(N(C)C)c4)ccn3n2)cc1 [NCGC00456929-01]
49 | 4.53 µM | CSCC(=O)Nc1nc2c(s1)C[C@]1(C)CC[C@@H]3[C@H](OC(=O)[C@H]3C)[C@H]1[C@@H]2C [NCGC00401416-01]
50 | 8.81 µM | O=C(Nc1cccc(-c2nc3ccccc3s2)c1)N1CCC(O)C1 (stereo not shown) [NCGC00638360-01]
51 | 17.6 µM | c1ccc(CNc2nc(-c3ccccc3)no2)cc1 [NCGC00422290-01]
52 | 11.1 µM | Cc1cc(CNC(=O)C2CCCCn3nnnc32)c2[nH]c(-c3ccccc3)c(C)c2c1 (stereo not shown) [NCGC00434459-01]
53 | 18 µM | Cn1ccc2c(C(=O)NCc3cccnc3)nc(-c3ccc(N4CCOCC4)cc3)cc21 [NCGC00411612-01]
54 | 0.0556 µM | Cc1ccc(C(=O)Nc2cccc(C(=O)O)c2)cc1 [MLS000530214-02]
55 | 16.1 µM | O=C(O)CCn1ncc2cc(OCc3ccc(-c4cccc(CO)c4)cc3)ccc21 [NCGC00418123-01]
56 | 0.881 µM | Cc1cccc(-n2ncc3c(N4CCCCCC4)ncnc32)c1 [NCGC00139171-01]
57 | > 30 µM | O=C(COc1ccc(Cl)cc1)Nc1ccc(O)c(-c2nc3ccccc3s2)c1 [NCGC00135616-01]
58 | 8.81 µM | CC(Oc1ccccc1F)C(=O)Nc1ccc(-c2nc3ccccc3s2)cc1 (stereo not shown) [NCGC00119149-01]
59 | 4.95 µM | COc1ccc(NC(=O)c2cc3ccccc3o2)c(OC)c1 [NCGC00141077-01]
60 | 0.785 µM | CCn1ncc(NC(=O)Cn2ncc3cc(-c4ccc(N(C)C)cc4)ccc32)n1 [NCGC00433406-01]
61 | > 30 µM | CN1CC(=O)N(C2CCCC2)Cc2c1ncnc2N1CCOCC1 [NCGC00480226-01]
62 | 0.881 µM | COc1ccc(NC(=O)Nc2cccc(-c3ccc(N4CCOCC4)nn3)c2)cc1F [NCGC00427622-01]
63 | 20.2 µM | COc1cccc(F)c1-c1ccc(COc2ccc3c(cnn3CCC(=O)O)c2)cc1 [NCGC00418057-01]

Row | IC50 | Structure (SMILES)
64 | 28.5 µM | CC(=O)N1CCNc2cc(-c3ccccc3F)ncc2C1 [NCGC00411070-01]
65 | 20.2 µM | O=C(Nc1nc2ccccc2s1)c1ccc2c(c1)OCCN(CCC(F)(F)F)C2 [NCGC00418456-01]
66 | > 30 µM | O=c1oc2c(CN3CCCC3)c(O)ccc2cc1-c1ccccc1 [NCGC00134332-01]
67 | 0.624 µM | CC(=O)Nc1ccc(NC(=O)c2cc(-c3ccc4c(c3)OCCO4)on2)cc1 [NCGC00118853-01]
68 | 4.95 µM | CC(C)n1cc(-c2cc(C(=O)N3CCC(C)(C)C3)c3ccc(F)cc3n2)cn1 [NCGC00430819-01]
69 | > 30 µM | Cc1ccc(-n2nc(C)c([C@H]3C=C[C@@H](OC(=O)Nc4cccc(C(F)(F)F)c4)C3)c2C)cc1Cl [NCGC00401611-01]
70 | 7.18 µM | CC(C)(C)CN1CCNc2cc(Nc3ccccc3)ncc2C1 [NCGC00411260-01]
71 | > 30 µM | CCOc1ccc(C(=O)Nc2ccc(-c3nc4ccccc4s3)cc2)cc1[N+](=O)[O-] [NCGC00188053-01]
72 | > 30 µM | Fc1ccc(-n2ncc3c(N4CCCCC4)nc(NN4CCOCC4)nc32)cc1 [NCGC00652353-01]
73 | 11.1 µM | CCOc1ccc(-n2nc(CO)c(C(=O)NCc3cccc(OC)c3)n2)cc1 [NCGC00117153-01]
74 | > 30 µM | O=C(NCC(F)(F)F)C1CCCN1c1nc2ncccc2o1 (stereo not shown) [NCGC00480238-01]
75 | 12.4 µM | Cc1ccc2nc(-c3ccc(/N=N/c4cc(S(=O)(=O)O)c5ccccc5c4O)cc3)sc2c1S(=O)(=O)O [NCGC00161973-01]
76 | 14 µM | COc1ccc(-c2nnc(SC(C)C(=O)O)o2)cc1 (stereo not shown) [NCGC00103120-01]
77 | > 30 µM | O=C(COc1ccc(Cl)cc1)Nc1ccc(-c2nc3ccccc3s2)c(O)c1 [NCGC00098783-01]
78 | 6.24 µM | Cc1ccc(-c2cc3c(=O)n(CCNC(=O)Cc4ccsc4)ccn3n2)c(C)c1 [NCGC00456972-01]
79 | > 30 µM | O=C(COc1ccccc1[N+](=O)[O-])Nc1ccc(-c2nc3ccccc3s2)cc1 [NCGC00119127-01]
80 | 17.6 µM | CCc1ccc(-n2nc(CO)c(C(=O)NC)n2)cc1 [NCGC00117187-01]
81 | 8.81 µM | Cc1ccc(-c2cc3c(=O)n(CCNC(=O)c4nccc5ccccc45)ccn3n2)c(C)c1 [NCGC00456974-01]
82 | 6.24 µM | Cc1cn2c(=O)cc(COC(=O)c3ccccc3F)nc2s1 [NCGC00129878-01]
83 | 8.81 µM | CCC(=O)Nc1cnc(-c2ccc(C)cc2)nc1 [NCGC00432895-01]
84 | > 30 µM | Clc1cccc(-n2ncc3c(N4CCC(Cc5ccccc5)CC4)ncnc32)c1 [NCGC00139124-01]

Row | Structure (SMILES) | IC50
85 | CCn1cc(-c2cc3c(cn2)CN(C)CCN3)cn1 [NCGC00411244-01] | 22.6 µM

Source: publication PMC12064818, “A general assay platform to study protein pharmacology using ligand-dependent structural dynamics” (Nature Communications, 2025)
